One data set deals with H460 lung cancer cells. The data set can be described thus: Cell growth inhibition assay (SRB), H460. It is filed as cell-based. The note with it: Homo sapiens, NCI-H460, means of three experiments, read-out: Cell Viability IC50 H460. Here is the method:
At the same time, we investigated the effect of the compounds on the growth inhibition of A549 and H460 lung cancer cells bearing KRAS and LKB1 mutations. […] Compound 50 containing a piperidine linker was selected for further analysis.
Human lung carcinoma A549 cells were cultured in Dulbecco’s modified Eagle’s medium and H460 cells were cultured in RPMI 1640 medium containing 10% fetal bovine serum and 1% penicillin/streptomycin at 37 °C with a 5% Co2 hypoxia experimental condition. The cells were grown in the hypoxia chamber (1% O2, 94% N2, and 5% Co2 in a multigas incubator)
Cell growth inhibition was assessed using sulforhodamine B (SRB) as described in [34]. The cells were fixed with 10% formalin (Sigma-Aldrich) and stained with 0.4% SRB. Protein-bound dye was dissolved in 10 mM of Tris, and its optical density was measured at 540 nm.

The nature of data set [1]: Lactate consumption in treated cells. It is filed as cell-based. The settings on record: cells treated with compound. From the text: In contrast, high aerobic glycolysis distinguishes cancer cells from normal cells and has been exploited to detect tumors in vivo. […] Cancer cells consume the secreted lactate to produce ATP through the TCA cycle and oxidative phosphorylation processes. Some cancer cells use lactate as a substrate for TCA intermediates via monocarboxylate transporters (MCT1/4) as well as for ATP production. Lactate can be converted to pyruvate using lactate dehydrogenase (LDH) and can be further converted to acetyl-CoA by […] for fatty acid synthesis.

The next data set deals with A549 cells. The data set is described as follows: Real-time ATP production rate (XF analyzer). It is filed as cell-based, human. From the text:
We then examined whether the ATP production pattern was altered by drug treatment using an XF analyzer for real-time metabolic analysis (Figure 5).

The next data set has as its target T1, human recombinant MDH2 (Homo sapiens, UniProt P40926).
T1 construct: purchased BioVision
T1 sequence (P40926 25-338): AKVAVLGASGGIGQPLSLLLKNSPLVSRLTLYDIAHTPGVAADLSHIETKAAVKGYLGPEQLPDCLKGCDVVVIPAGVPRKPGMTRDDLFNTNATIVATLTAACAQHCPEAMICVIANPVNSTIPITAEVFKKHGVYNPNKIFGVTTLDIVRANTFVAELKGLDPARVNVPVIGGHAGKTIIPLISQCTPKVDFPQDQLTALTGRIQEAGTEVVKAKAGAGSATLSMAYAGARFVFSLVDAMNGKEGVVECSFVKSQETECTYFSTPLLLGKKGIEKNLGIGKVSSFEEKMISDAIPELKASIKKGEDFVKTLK
The data set is described as follows: MDH2 enzyme activity assay (oxaloacetate-dependent NADH oxidation). The note with it: means of three experiments. It is filed as biochemical. An excerpt:
To develop the dual inhibitors of MDH1 and MDH2, we screened the newly synthesized LW1497 derivatives using MDH and MDH2 enzyme assays. LW1497 was used as the positive control for the MDH1/2 dual inhibitor. We evaluated the ability of the synthesized compounds to inhibit human recombinant MDH1 and MDH2 enzymatic activity using an oxaloacetate-dependent NADH oxidation assay (Table 1, Table 2, Table 3, Table 4, Table 5 and Table 6). Our SAR optimization strategy focused on four different parts of LW1497: (A) the introduction of various groups at different positions on the amide phenyl ring; (B) the replacement of the 3-(4-(2,4,4-trimethylpentan-2-yl) alkyl chain; (C) the alteration of the amide portion; and (D) the modification of the oxypropanamide linker portion (Figure 1).
The activities of MDH1 and MDH2 were confirmed using an oxaloacetate-dependent NADH oxidation assay. Experiments were conducted using 100 mM of potassium phosphate buffer (pH 7.4) and human recombinant MDH1 (BioVision) and MDH2 (BioVision), and the results were obtained by measuring the absorbance at 340 nm. Enzyme activity was measured using a plate reader at a wavelength of 340 nm.

In turn, `CC(C)(C)CC(C)(C)c1ccc(N2CCC(C(=O)Nc3cccc(OC(F)(F)F)c3)CC2)cc1` [Compound 50, N-(3-(Trifluoromethoxy)phenyl)-1-(4-(2,4,4-trimethylpentan-2-yl)phenyl)piperidine-4-carboxamide] gave a melting point of 139 to 140 °C. The IC50 in the data set with H460 lung cancer cells worked out at 3.67 ± 0.06 µM. The Lactate consumption entry in data set [1] is given as “did not change significantly”. In the data set with A549 cells (5 µM), the “total ATP decrease” value is 14.6%. In addition, the “total ATP decrease” value with A549 cells (10 µM) is 28.6%. For the same molecule, the IC50 at human recombinant MDH2 was 2.24 ± 0.09 µM.

For the origin of these results see PMC10263210, “Design, Synthesis and Biological Evaluation of Novel MDH Inhibitors Targeting Tumor Microenvironment” (Pharmaceuticals, 2023).
